Read-outs that look alike come from different tables or passages of the source. Blank lines part the entries; values can stand above or below the molecule they belong to.
Assays:
H2228 = assay: cells; parameters: CellTiter-Glo viability of fusion-positive human cancer cell lines; details: Homo sapiens, NCI-H2228, 72 h
H3122 = assay: cells; parameters: CellTiter-Glo viability of fusion-positive human cancer cell lines; details: Homo sapiens, NCI-H3122, 72 h
JFCR-018-1 = assay: cells; parameters: CellTiter-Glo viability of fusion-positive human cancer cell lines; details: 72 h
JFCR-028-3 = assay: cells; parameters: CellTiter-Glo viability of fusion-positive human cancer cell lines; details: 72 h
KARPAS299 = assay: cells; parameters: CellTiter-Glo viability of fusion-positive human cancer cell lines; details: Homo sapiens, KARPAS-299, 72 h
MCC-003 = assay: cells; parameters: CellTiter-Glo viability of fusion-positive human cancer cell lines; details: 72 h
EML4-ALK WT = test system: T1, EML4-ALK WT; assay: cells; parameters: CellTiter-Glo viability of Ba/F3 cells dependent on EML4-ALK, without IL-3; details: Ba/F3 EML4-ALK, 72 h
T1 construct: EML4-ALK fusion, wild-type kinase domain, expressed in Ba/F3 cells
Description: To identify drugs that can overcome these mutations, we screened our focused 90-inhibitor library using Ba/F3 cells expressing EML4-ALK I1171N + F1174I and I1171N + L1198H. At a concentration of 50 nM, gilteritinib suppressed the viability of both wild-type (WT) and compound mutant Ba/F3 cells (Fig. 1a). Since gilteritinib has reported as multi-kinase inhibitor, we first evaluated whether the ALK inhibitory efficacy of gilteritinib is driven by on-target activity or not. As a result of western blot analysis, gilteritinib suppressed the autophosphorylation of ALK in EML4-ALK-expressing Ba/F3 cells (Fig. 1b and Supplementary Fig. 1). […] As well as Ba/F3 cell model, we verified the activity of gilteritinib to H3122 cell line that is EML4-ALK-positive NSCLC cells. […] Then, the inhibitory concentration of gilteritinib is matched between ALK phosphorylation and its downstream signals. […] Further, using the phosphoproteomics data, kinase substrate-enrichment analysis (KSEA) predicted activate kinase candidates as potential gilteritinib targets and identified ALK as the most likely regulated protein (Fig. 1e, Supplementary Figs. 3 and 4, and Supplementary Table 2). To establish Ba/F3 cells expression WT or mutant EML4-ALK, TPM3-NTRK1, and CD74-ROS1 fusion proteins, pLenti6.3 vectors containing the cDNA of these fusion oncogenes were transfected into 293FT cells using packaging plasmids (ViraPower) for lentivirus production. Ba/F3 cells were infected using lentivirus-containing medium supplemented with polybrene (8 μg/ml), and after 24 h of incubation, the infected cells were selected using 7 μg/ml blasticidin (Invitrogen) for 1 week. After selection, each EML4-ALK-, TPM3-NTRK1-, and CD74-ROS1-expressing cell line was cultured in D-10 without IL-3. […] To stablise H3122, JFCR-028-3, MCC-003 cells expression WT or mutant EML4-ALK, KRAS G12C, cells were infected using lentivirus-containing medium supplemented with polybrene (8 μg/ml). After 24 h of incubation, the infected cells were selected using 7 μg/ml blasticidin for H3122, JFCR028-3, and 10 μg/ml for MCC-003, respectively. To stablise H3122 cells expression AXL, pHAGE-AXL vector (purchased from addgene) was transfected into 293FT cells using packaging plasmids for lentivirus production. H3122 cells were infected using lentivirus-containing medium supplemented with polybrene (8 μg/ml), and after 24 h of incubation, EGFP-positive cells were sorted using FACSMelody (BD Bioscience, San Jose, CA, USA). To stablise NIH3T3 oncogene-expressing cells, cells were infected using lentivirus-containing medium supplemented with polybrene (8 μg/ml), and after 24 h of incubation, the infected cells were selected using 2 μg/ml blasticidin for 1 week.

in vitro = assay: in vitro; parameters: CellTiter-Glo viability of parental Ba/F3 cells with IL-3 (counter-screen); details: mouse, parental ba/f3 cells +il-3; with IL-3; read-out: IC50 parental Ba/F3 (+IL-3)
Description: To identify drugs that can overcome these mutations, we screened our focused 90-inhibitor library using Ba/F3 cells expressing EML4-ALK I1171N + F1174I and I1171N + L1198H. At a concentration of 50 nM, gilteritinib suppressed the viability of both wild-type (WT) and compound mutant Ba/F3 cells (Fig. 1a). Since gilteritinib has reported as multi-kinase inhibitor, we first evaluated whether the ALK inhibitory efficacy of gilteritinib is driven by on-target activity or not. As a result of western blot analysis, gilteritinib suppressed the autophosphorylation of ALK in EML4-ALK-expressing Ba/F3 cells (Fig. 1b and Supplementary Fig. 1). […] As well as Ba/F3 cell model, we verified the activity of gilteritinib to H3122 cell line that is EML4-ALK-positive NSCLC cells. […] Then, the inhibitory concentration of gilteritinib is matched between ALK phosphorylation and its downstream signals. […] Further, using the phosphoproteomics data, kinase substrate-enrichment analysis (KSEA) predicted activate kinase candidates as potential gilteritinib targets and identified ALK as the most likely regulated protein (Fig. 1e, Supplementary Figs. 3 and 4, and Supplementary Table 2).  Fig. 1 Identification of gilteritinib as an inhibitor of ALK-rearranged cancer cells. a Relative cell viability of parental (with IL-3), EML4-ALK wild-type (WT), EML4-ALK I1171N + F1174I, and EML4-ALK I1171N + L1198H Ba/F3 cells treated with 50 nM of the indicated inhibitors. Cell viability was analyzed using the CellTiter-Glo assay and calculated relative to the viability of dimethyl sulfoxide-treated Ba/F3 cells. b The suppression of phospho-ALK in I1171N + F1174I, I1171N + L1198H mutation-expressing Ba/F3 cells was evaluated using western blotting. Cells were treated with the indicated concentrations of gilteritinib for 3 h (n = 2). c The suppression of phospho-ALK and its downstream signals in H3122 parental cells and I1171N + F1174I compound mutation-expressing cells were evaluated using western blotting. […] N = 3 independent samples examined over three independent experiments and representative experiment data are presented as mean values ± SD. e Volcano plot displaying the −log10 (p-value) versus log2 (gilteritinib treatment/DMSO treatment) for all quantified phosphopeptides. The red diamond indicates phospho-ALK.

IC50 (H2228; read-out: Brigatinib IC50): 3.5 ± 1 nM
IC50 (H3122; read-out: Brigatinib IC50): 7.9 ± 3.7 nM
IC50 (KARPAS299; read-out: Brigatinib IC50): 7.1 ± 2 nM
Structure (SMILES): COc1cc(N2CCC(N3CCN(C)CC3)CC2)ccc1Nc1ncc(Cl)c(Nc2ccccc2P(C)(C)=O)n1 [Brigatinib]
IC50 (JFCR-018-1; read-out: Brigatinib IC50): 7.7 ± 0.46 nM
IC50 (JFCR-028-3; read-out: Brigatinib IC50): 6.2 ± 1.5 nM
IC50 (MCC-003; read-out: Brigatinib IC50): 63 ± 11 nM
CC50 at 72 h (in vitro): 578 ± 113 nM

IC50 (H2228; read-out: Alectinib IC50): 3.8 ± 1.2 nM
IC50 (KARPAS299; read-out: Alectinib IC50): 43 ± 7.5 nM
Structure (SMILES): CCc1cc2c(cc1N1CCC(N3CCOCC3)CC1)C(C)(C)c1[nH]c3cc(C#N)ccc3c1C2=O [alectinib]
IC50 (MCC-003; read-out: Alectinib IC50): 765 ± 97 nM
CC50 at 72 h (in vitro): 899 ± 12 nM

IC50 (H2228; read-out: Ceritinib IC50): 10 ± 3.6 nM
IC50 (H3122; read-out: Ceritinib IC50): 15 ± 2.1 nM
IC50 (KARPAS299; read-out: Ceritinib IC50): 16 ± 6.9 nM
Structure (SMILES): Cc1cc(Nc2ncc(Cl)c(Nc3ccccc3S(=O)(=O)C(C)C)n2)c(OC(C)C)cc1C1CCNCC1 [Ceritinib]
IC50 (JFCR-018-1; read-out: Ceritinib IC50): 30 ± 3 nM
IC50 (JFCR-028-3; read-out: Ceritinib IC50): 12 ± 3.3 nM
IC50 (MCC-003; read-out: Ceritinib IC50): 74 ± 22 nM
CC50 at 72 h (in vitro): 623 ± 33 nM

IC50 (H2228; read-out: Crizotinib IC50): 28 ± 14 nM
IC50 (KARPAS299; read-out: Crizotinib IC50): 51 ± 5.3 nM
Structure (SMILES): C[C@@H](Oc1cc(-c2cnn(C3CCNCC3)c2)cnc1N)c1c(Cl)ccc(F)c1Cl [Crizotinib]
IC50 (JFCR-018-1; read-out: Crizotinib IC50): 136 ± 14 nM
CC50 at 72 h (in vitro): 371 ± 50 nM

Reference: article PMC7904790 (Nature Communications, 2021)
